From PubChem BioAssay AID248 (DTP/NCI, 2004)
Several values for one entry are separate records, joined by “and”; a condition that tells them apart may be missing. Identical values can stand only once. Inconclusive results and toxic doses are left out. No stated cut-off is given here; in the data, active means T/C of 150% or more; inactive means T/C below 125%.

Test system: L1210 leukemia ip in BDF1 mice, survival T/C
Assay: NCI In Vivo Anticancer Drug Screen. Data for tumor model L1210 Leukemia (intraperitoneal) in B6D2F1 (BDF1) mice
Conditions: endpoint: mean survival time, higher = longer survival
Method in brief: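 Read-out is survival time, reported as the treated-group measurement over the vehicle-control measurement.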

[1] = dose: 100.0 mg/kg/injection, schedule: Q01DX009 (ip), vehicle: Klucel (hydroxypropylcellulose) (HPC)
[2] = dose: 200.0 mg/kg/injection, schedule: Q01DX009 (ip), vehicle: Klucel (hydroxypropylcellulose) (HPC)
[3] = dose: 400.0 mg/kg/injection, schedule: Q01DX009 (ip), vehicle: Klucel (hydroxypropylcellulose) (HPC)
[4] = dose: 100.0 mg/kg/injection, schedule: Q01DX001 (ip), vehicle: saline
[5] = dose: 200.0 mg/kg/injection, schedule: Q01DX001 (ip), vehicle: saline
[6] = dose: 400.0 mg/kg/injection, schedule: Q01DX001 (ip), vehicle: other
[7] = dose: 400.0 mg/kg/injection, schedule: Q01DX001 (ip), vehicle: saline
[8] = dose: 100.0 mg/kg/injection, schedule: Q01DX001 (ip), vehicle: carboxymethylcellulose (CMC)
[9] = dose: 200.0 mg/kg/injection, schedule: Q01DX001 (ip), vehicle: carboxymethylcellulose (CMC)
[10] = dose: 400.0 mg/kg/injection, schedule: Q01DX001 (ip), vehicle: carboxymethylcellulose (CMC)
[11] = dose: 100.0 mg/kg/injection, schedule: Q01DX009 (ip), vehicle: saline
[12] = dose: 200.0 mg/kg/injection, schedule: Q01DX009 (ip), vehicle: saline
[13] = dose: 400.0 mg/kg/injection, schedule: Q01DX009 (ip), vehicle: saline
[14] = dose: 100.0 mg/kg/injection, schedule: Q01DX001 (ip), vehicle: other
[15] = dose: 200.0 mg/kg/injection, schedule: Q01DX001 (ip), vehicle: other

Measured: T/C

O=C(Nc1ccc(C(=O)O)cc1)Nc1ccccc1C(F)(F)F
inactive: dose: 100.0 mg/kg/injection, schedule: Q01DX009 (ip), vehicle: gum acacia 100 % of control | dose: 200.0 mg/kg/injection, schedule: Q01DX009 (ip), vehicle: gum acacia 102 % of control | dose: 400.0 mg/kg/injection, schedule: Q01DX009 (ip), vehicle: gum acacia 96 % of control

COc1ccc2c(n1)Sc1c(N)nc(N)nc1N2
inactive: [1] 103 % of control | [2] 103 % of control | [3] 88 % of control

O=S(=O)(O)/C(=C\c1ccccc1)c1ccccc1 (tested in a mixture with another compound)
inactive: [4] 103 % of control | dose: 100.0 mg/kg/injection, schedule: Q04DX003 (ip), vehicle: other 106 % of control | [5] 104 % of control | dose: 200.0 mg/kg/injection, schedule: Q04DX003 (ip), vehicle: other 106 % of control | dose: 264.0 mg/kg/injection, schedule: Q01DX001 (ip), vehicle: other 108 % of control | [6] 94 % of control | [7] 115 % of control

CC(/C=C(\C)N1CCCC1)=[N+]1CCCC1
inactive: dose: 0.78 mg/kg/injection, schedule: Q01DX009 (ip), vehicle: saline 101 % of control | dose: 1.56 mg/kg/injection, schedule: Q01DX009 (ip), vehicle: saline 101 % of control | dose: 1.56 mg/kg/injection, schedule: Q04DX003 (ip), vehicle: saline 94 % of control and 108 % of control | dose: 3.12 mg/kg/injection, schedule: Q04DX003 (ip), vehicle: saline 112 % of control and 89 % of control | dose: 6.25 mg/kg/injection, schedule: Q04DX003 (ip), vehicle: saline 110 % of control

Brc1cccc2c(I)cccc12
inactive: [8] 95 % of control | [9] 98 % of control | [10] 92 % of control

Oc1ccc(Cl)cc1Cc1cc(Cl)cc(Cc2cc(Cl)ccc2O)c1O
inactive: dose: 12.5 mg/kg/injection, schedule: Q01DX009 (ip), vehicle: saline with Tween-80 98 % of control | dose: 25.0 mg/kg/injection, schedule: Q01DX009 (ip), vehicle: saline with Tween-80 102 % of control | dose: 50.0 mg/kg/injection, schedule: Q01DX009 (ip), vehicle: saline with Tween-80 109 % of control

CCOC(=O)C(C)(C)O
inactive: [4] 91 % of control | [5] 100 % of control | [7] 102 % of control

N#CC(C#N)=Cc1cc(Cl)ccc1O
inactive: [4] 96 % of control | [5] 96 % of control

CCCNC(=O)c1ccc(NCc2cnc3nc(N)nc(N)c3n2)cc1
inactive: dose: 100.0 mg/kg/injection, schedule: Q01DX001 (ip), vehicle: Klucel (hydroxypropylcellulose) (HPC) 92 % of control | dose: 200.0 mg/kg/injection, schedule: Q01DX001 (ip), vehicle: Klucel (hydroxypropylcellulose) (HPC) 100 % of control | dose: 400.0 mg/kg/injection, schedule: Q01DX001 (ip), vehicle: Klucel (hydroxypropylcellulose) (HPC) 98 % of control

OCC[N+]12CN3CN(CN(C3)C1)C2
inactive: dose: 100.0 mg/kg/injection, schedule: Q04DX002 (ip), vehicle: saline 113 % of control | dose: 200.0 mg/kg/injection, schedule: Q04DX002 (ip), vehicle: saline 106 % of control | dose: 400.0 mg/kg/injection, schedule: Q04DX002 (ip), vehicle: saline 106 % of control

Nc1cc(N)cc(Cc2ccccc2)c1
inactive: dose: 50.0 mg/kg/injection, schedule: Q01DX009 (ip), vehicle: Klucel (hydroxypropylcellulose) (HPC) 100 % of control | [1] 95 % of control | dose: 100.0 mg/kg/injection, schedule: Q04DX003 (ip), vehicle: Klucel (hydroxypropylcellulose) (HPC) 100 % of control | [2] 103 % of control | dose: 200.0 mg/kg/injection, schedule: Q04DX003 (ip), vehicle: Klucel (hydroxypropylcellulose) (HPC) 102 % of control | [3] 92 % of control | dose: 400.0 mg/kg/injection, schedule: Q04DX003 (ip), vehicle: Klucel (hydroxypropylcellulose) (HPC) 98 % of control

C[N+]12CN3CN(CN(C3)C1)C2
inactive: dose: 50.0 mg/kg/injection, schedule: Q01DX001 (ip), vehicle: carboxymethylcellulose (CMC) 104 % of control | [8] 106 % of control | [4] 100 % of control | [11] 110 % of control | [9] 101 % of control | [5] 91 % of control | [12] 114 % of control | [10] 98 % of control | [7] 96 % of control | [13] 105 % of control

O=C(NNc1ccccc1)NC1OCC(O)C(O)C1O (stereo unspecified)
inactive: [11] 92 % of control | dose: 100.0 mg/kg/injection, schedule: Q04DX003 (ip), vehicle: water 97 % of control | [12] 92 % of control | dose: 200.0 mg/kg/injection, schedule: Q04DX003 (ip), vehicle: water 97 % of control | [13] 93 % of control | dose: 400.0 mg/kg/injection, schedule: Q04DX003 (ip), vehicle: water 97 % of control

Cc1ccc(-n2nnc3ccccc3c2=O)cc1C
inactive: [11] 101 % of control | dose: 100.0 mg/kg/injection, schedule: Q04DX003 (ip), vehicle: saline 92 % of control | [12] 98 % of control | dose: 200.0 mg/kg/injection, schedule: Q04DX003 (ip), vehicle: saline 108 % of control | [13] 104 % of control | dose: 400.0 mg/kg/injection, schedule: Q04DX003 (ip), vehicle: saline 93 % of control

CCCC(=O)C(CCN(C)C)c1ccccn1 (stereo unspecified)
inactive: dose: 44.0 mg/kg/injection, schedule: Q01DX Z (ip), vehicle: methylcellulose (MC) 94 % of control | dose: 66.0 mg/kg/injection, schedule: Q01DX Z (ip), vehicle: methylcellulose (MC) 107 % of control

O=[N+]([O-])c1cccn2ncnc12
inactive: dose: 5.0 mg/kg/injection, schedule: Q01DX001 (ip), vehicle: acetone 104 % of control | dose: 10.0 mg/kg/injection, schedule: Q01DX001 (ip), vehicle: acetone 106 % of control | dose: 20.0 mg/kg/injection, schedule: Q01DX001 (ip), vehicle: acetone 96 % of control | dose: 40.0 mg/kg/injection, schedule: Q01DX001 (ip), vehicle: acetone 96 % of control | dose: 80.0 mg/kg/injection, schedule: Q01DX001 (ip), vehicle: acetone 107 % of control

COC(O)C(O)C(O)C(O)CO (stereo unspecified) (tested in a mixture with another compound)
inactive: dose: 100.0 mg/kg/injection, schedule: Q01DX001 (ip), vehicle: saline with Tween-80 90 % of control | dose: 200.0 mg/kg/injection, schedule: Q01DX001 (ip), vehicle: saline with Tween-80 97 % of control | dose: 400.0 mg/kg/injection, schedule: Q01DX001 (ip), vehicle: saline with Tween-80 93 % of control

OCn1c2ccccc2c2ccccc21
inactive: [14] 98 % of control | dose: 100.0 mg/kg/injection, schedule: Q04DX002 (ip), vehicle: Klucel (hydroxypropylcellulose) (HPC) 113 % of control | [15] 92 % of control | dose: 200.0 mg/kg/injection, schedule: Q04DX002 (ip), vehicle: Klucel (hydroxypropylcellulose) (HPC) 94 % of control | [6] 98 % of control | dose: 400.0 mg/kg/injection, schedule: Q04DX002 (ip), vehicle: Klucel (hydroxypropylcellulose) (HPC) 113 % of control

O=c1oc2ccc(N=Cc3ccc4c(c3)OCO4)cc2c2ccccc12
inactive: [14] 91 % of control | [15] 93 % of control | [6] 93 % of control

CC(C)(CCN)[N+](=O)[O-]
inactive: [4] 96 % of control | [5] 96 % of control | [7] 102 % of control
